Patent US10189840B2, “Substituted tricyclic heterocyclic compounds” (BRISTOL-MYERS SQUIBB COMPANY, priority 2015, dated 2019)

Target: TNFα (Homo sapiens (Human), UniProt P01375)
Assay: TNF induced HEK-Blue assay
Assay type: cell-based
Conditions: TNFα 0.5 ng/ml; HEK-Blue-CD40L cells, NF-κB-driven secreted alkaline phosphatase reporter; 18 h
Method: Test compounds serially diluted in DMSO were plated in an assay plate (Labcyte, Cat. #LP-0200) at final concentrations ranging from 0.004 μM to 25 μM. TNFα (final concentration 0.5 ng/ml) or CD40L (final concentration 30 ng/ml) in assay buffer [DMEM, 4.5 g/l glucose (Gibco, Cat. 21063-029), 10% FBS (Sigma, F4135), 1% Penicillin-Streptomycin (Gibco, Cat. 15140-122), 1% Anti-Anti (Gibco, Cat. 15240-112) and 2 mM L-glutamine (Gibco, Cat. 25030-081)] was then added to the assay plate. After a 30 minute pre-incubation at 37° C. and 5% CO2, HEK-Blue-CD40L cells (InvivoGen, Cat. Code hkb-cd40) containing a NF-κB-driven secreted alkaline phosphatase reporter gene were seeded into the assay plate at a density of 20,000 cells per well. This plate was then incubated for 18 h at 37° C. and 5% CO2. Secreted alkaline phosphatase expression was measured using QUANTI-Blue (InvivoGen, Cat. Code rep-qb1) according to manufacturer's specifications and the assay plate was read on a PerkinElmer Envision at 620 nm.
Inhibition data for the test compound over a range of concentrations was plotted as percentage inhibition of the test compound (100%=maximum inhibition). IC50 values were determined after correcting for background [(sample read−mean of low control)/(mean of high control−mean of low control)] where by the low control is DMSO without stimulation and high control is DMSO with stimulation. The IC50 is defined as the concentration of test compound which produces 50% inhibition and was quantified using the 4 parameter logistic equation to fit the data.
Table 5 lists the IC50 values measured in the TNF induced HEK-Blue assay for Examples 1 to 40 of this invention.

TNFα, sequence (P01375 77-233): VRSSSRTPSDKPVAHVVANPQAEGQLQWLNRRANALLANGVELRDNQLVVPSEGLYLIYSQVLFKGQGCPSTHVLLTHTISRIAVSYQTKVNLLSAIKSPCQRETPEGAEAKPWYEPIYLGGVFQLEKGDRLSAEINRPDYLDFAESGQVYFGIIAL

IC50, < 1000 nM:
CC(C)(O)c1ccc(-c2ccc3nc4n(c3n2)C(c2ccccc2OC(F)F)CC4O)cc1 (single isomer, unassigned) [Example 2 (e1), 8-(2-(difluoromethoxy)phenyl)-2-(4-(2-hydroxypropan-2-yl)phenyl)-7,8-dihydro-6H-pyrrolo[2′,1′:2,3]imidazo[4,5-b]pyridin-6-ol]
CC(C)(O)c1ncc(-c2ccc3nc4n(c3n2)C(c2ccccc2OC(F)F)CC4O)cn1 (centres unmarked) [Example 11 (e1), 8-(2-(difluoromethoxy)phenyl)-2-(2-(2-hydroxypropan-2-yl)pyrimidin-5-yl)-7,8-dihydro-6H-pyrrolo[2′,1′:2,3]imidazo[4,5-b]pyridin-6-ol]
CC(C)(O)c1ccc(-c2ccc3nc4n(c3n2)C(c2ccccc2C(F)(F)F)CC4)cc1 (single isomer, unassigned) [Example 25 (e2), 2-(4-(8-(2-(Trifluoromethyl)phenyl)-7,8-dihydro-6H-pyrrolo[2′,1′:2,3]imidazo[4,5-b]pyridin-2-yl)phenyl)propan-2-ol]
CC(C)(O)c1ccc(-c2ccc3nc4n(c3n2)C(c2ccccc2OC(F)F)CC4)cc1 (single isomer, unassigned) [Example 26 (e1), 2-(4-(8-(2-(difluoromethoxy)phenyl)-7,8-dihydro-6H-pyrrolo[2′,1′:2,3]imidazo[4,5-b]pyridin-2-yl)phenyl)propan-2-ol]
CC(C)(O)c1ccc(-c2ccc3nc4n(c3n2)C(c2ccccc2OC(F)(F)F)CC4F)cc1 (single isomer, unassigned) [Example 22 (e1), 2-(4-(6-fluoro-8-(2-(trifluoromethoxy)phenyl)-7,8-dihydro-6H-pyrrolo[2′,1′:2,3]imidazo[4,5-b]pyridin-2-yl)phenyl)propan-2-ol]
CC(C)(O)c1ccc(-c2ccc3nc4n(c3n2)C(c2c(F)cccc2C(F)(F)F)CC4O)cc1 (single isomer, unassigned) [Example 3 (e3), 8-(2-fluoro-6-(trifluoromethyl)phenyl)-2-(4-(2-hydroxypropan-2-yl)phenyl)-7,8-dihydro-6H-pyrrolo[2′,1′:2,3]imidazo[4,5-b]pyridin-6-ol]
Cc1ccc(C)c(C2CC(O)c3nc4ccc(-c5cnc(N6CCOCC6)nc5)nc4n32)c1 (centres unmarked) [Example 6 (DM), 8-(2,5-dimethylphenyl)-2-(2-morpholinopyrimidin-5-yl)-7,8-dihydro-6H-pyrrolo[2′,1′:2,3]imidazo[4,5-b]pyridin-6-ol]
CC(C)(O)c1ccc(-c2ccc3nc4n(c3n2)C(c2ccccc2OC(F)F)CC4)cc1 (racemic) [Example 26 (rac), 2-(4-(8-(2-(difluoromethoxy)phenyl)-7,8-dihydro-6H-pyrrolo[2′,1′:2,3]imidazo[4,5-b]pyridin-2-yl)phenyl)propan-2-ol]
OC1CC(c2ccccc2OC(F)F)n2c1nc1ccc(-c3cnc(N4CCOCC4)nc3)nc12 (centres unmarked) [Example 10 (DM), 8-(2-(difluoromethoxy)phenyl)-2-(2-morpholinopyrimidin-5-yl)-7,8-dihydro-6H-pyrrolo[2′,1′:2,3]imidazo[4,5-b]pyridin-6-ol]
CC(C)(O)c1ccc(-c2ccc3nc4n(c3n2)C(c2c(F)cccc2C(F)(F)F)CC4)cc1 (racemic) [Example 32 (e2), 2-(4-(8-(2-fluoro-6-(trifluoromethyl)phenyl)-7,8-dihydro-6H-pyrrolo[2′,1′:2,3]imidazo[4,5-b]pyridin-2-yl)phenyl)propan-2-ol]
COc1ccccc1C1CCc2nc3ccc(-c4ccc(C(C)(C)O)cc4)nc3n21 (centres unmarked) [Example 31 (e1), 2-(4-(8-(2-methoxyphenyl)-7,8-dihydro-6H-pyrrolo[2′,1′:2,3]imidazo[4,5-b]pyridin-2-yl)phenyl)propan-2-ol]
CC(C)(O)c1ccc(-c2ccc3nc4n(c3n2)C(c2ccccc2OC(F)F)CC4F)cc1 (centres unmarked) [Example 15 (e1), 2-(4-(8-(2-(difluoromethoxy)phenyl)-6-fluoro-7,8-dihydro-6H-pyrrolo[2′,1′:2,3]imidazo[4,5-b]pyridin-2-yl)phenyl)propan-2-ol]

IC50, 1000 to 10000 nM:
CC(C)(O)c1ccc(-c2ccc3nc4n(c3n2)C(c2ccccc2C2CC2)CC4O)cc1 (single isomer, unassigned) [Example 9 (e4), 8-(2-cyclopropylphenyl)-2-(4-(2-hydroxypropan-2-yl)phenyl)-7,8-dihydro-6H-pyrrolo[2′,1′:2,3]imidazo[4,5-b]pyridin-6-ol]
COc1ccc(-c2ccc3nc4n(c3n2)C(c2ccccc2OC(F)F)CC4)cn1 (racemic) [Example 29 (rac), 8-(2-(difluoromethoxy)phenyl)-2-(6-methoxypyridin-3-yl)-7,8-dihydro-6H-pyrrolo[2′,1′:2,3]imidazo[4,5-b]pyridine]
CC(C)(O)c1ccc(-c2ccc3nc4n(c3n2)C(c2ccccc2OC(F)F)CC4O)cc1 (single isomer, unassigned) [Example 2 (e2), 8-(2-(difluoromethoxy)phenyl)-2-(4-(2-hydroxypropan-2-yl)phenyl)-7,8-dihydro-6H-pyrrolo[2′,1′:2,3]imidazo[4,5-b]pyridin-6-ol]
CC(C)(O)c1ccc(-c2ccc3nc4n(c3n2)C(c2ccccc2C(F)(F)F)CC4O)cc1 (single isomer, unassigned) [Example 1 (e3), 2-(4-(2-Hydroxypropan-2-yl)phenyl)-8-(2-(trifluoromethyl)phenyl)-7,8-dihydro-6H-pyrrolo[2′,1′:2,3]imidazo[4,5-b]pyridin-6-ol]
CC(C)(O)c1ccc(-c2ccc3nc4n(c3n2)C(c2ccccc2C(F)(F)F)CC4O)cc1 (single isomer, unassigned) [Example 1 (e2), 2-(4-(2-Hydroxypropan-2-yl)phenyl)-8-(2-(trifluoromethyl)phenyl)-7,8-dihydro-6H-pyrrolo[2′,1′:2,3]imidazo[4,5-b]pyridin-6-ol]
CC(C)(O)c1ccc(-c2ccc3nc4n(c3n2)C(c2cc(F)ccc2C(F)(F)F)CC4F)cc1 (centres unmarked) [Example 24 (e3), 2-(4-(6-fluoro-8-(5-fluoro-2-(trifluoromethyl)phenyl)-7,8-dihydro-6H-yrrolo[2′,1′:2,3]imidazo[4,5-b]pyridin-2-yl)phenyl)propan-2-ol]
CC(C)(O)c1ccc(-c2ccc3nc4n(c3n2)C(c2cc(F)ccc2C(F)(F)F)CC4F)cc1 (single isomer, unassigned) [Example 24 (e1), 2-(4-(6-fluoro-8-(5-fluoro-2-(trifluoromethyl)phenyl)-7,8-dihydro-6H-yrrolo[2′,1′:2,3]imidazo[4,5-b]pyridin-2-yl)phenyl)propan-2-ol]
COc1ccccc1C1CC(O)c2nc3ccc(-c4ccc(C(C)(C)O)cc4)nc3n21 (single isomer, unassigned) [Example 12 (e4), 2-(4-(2-hydroxypropan-2-yl)phenyl)-8-(2-methoxyphenyl)-7,8-dihydro-6H-pyrrolo[2′,1′:2,3]imidazo[4,5-b]pyridin-6-ol]
COc1ccc(-c2ccc3nc4n(c3n2)[C@@H](c2cc(C)ccc2C)CC4)cn1 [Example 39, (R)-8-(2,5-dimethylphenyl)-2-(6-methoxypyridin-3-yl)-7,8-dihydro-6H-pyrrolo[2′,1′:2,3]imidazo[4,5-b]pyridine]
CC(C)(O)c1ccc(-c2ccc3nc4n(c3n2)C(c2cc(F)ccc2C(F)(F)F)CC4O)cc1 (single isomer, unassigned) [Example 13 (e2), 8-(5-fluoro-2-(trifluoromethyl)phenyl)-2-(4-(2-hydroxypropan-2-yl)phenyl)-7,8-dihydro-6H-pyrrolo[2′,1′:2,3]imidazo[4,5-b]pyridin-6-ol]
CC(C)(O)c1ccc(-c2ccc3nc4n(c3n2)C(c2ccccc2C(F)(F)F)CC4F)cc1 (single isomer, unassigned) [Example 14 (e3), 2-(4-(6-Fluoro-8-(2-(trifluoromethyl)phenyl)-7,8-dihydro-6H-pyrrolo[2′,1′:2,3]imidazo[4,5-b]pyridin-2-yl)phenyl)propan-2-ol]
CC(C)(O)c1ccc(-c2ccc3nc4n(c3n2)C(c2ccccc2OC(F)F)CC4O)cc1 (single isomer, unassigned) [Example 2 (e4), 8-(2-(difluoromethoxy)phenyl)-2-(4-(2-hydroxypropan-2-yl)phenyl)-7,8-dihydro-6H-pyrrolo[2′,1′:2,3]imidazo[4,5-b]pyridin-6-ol]
CC(C)(O)c1ccc(-c2ccc3nc4n(c3n2)C(c2ccccc2C2CC2)CC4F)cc1 (single isomer, unassigned) [Example 21 (e2), 2-(4-(8-(2-cyclopropylphenyl)-6-fluoro-7,8-dihydro-6H-pyrrolo[2′,1′:2,3]imidazo[4,5-b]pyridin-2-yl)phenyl)propan-2-ol]

IC50, 10000 to 25000 nM:
CC(C)(O)c1ccc(-c2ccc3nc4n(c3n2)C(c2ccccc2OC(F)F)CC4F)cc1 (centres unmarked) [Example 15 (e4), 2-(4-(8-(2-(difluoromethoxy)phenyl)-6-fluoro-7,8-dihydro-6H-pyrrolo[2′,1′:2,3]imidazo[4,5-b]pyridin-2-yl)phenyl)propan-2-ol]
